The supplement of paper PMC10307832

Columns and labels:
Assay in all cases: relative viability (nuclei count vs DMSO), 5 days (fraction); higher = more cells survive
[1] = compound: CC[C@@H](C)CNCC(=O)N1CCC2=C([C@@H]1COC3=CC=CC(=C3)C)C=CS2 [RU-SKI 43]
Summary of the method: (§1)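 Cells of lung cancer lines were placed in 1536-well plates and kept overnight at 37 °C. Pinning then delivered five library-drug doses (not always all listed), spaced by √10, onto plates anchored with vehicle, and the cells were left 5 days without changing medium. One step fixed, permeabilised and stained them with Hoechst, and MetaXpress counted nuclei in 4× images. Viability, as a median over plates, is treated-well nuclei divided by vehicle-well nuclei, with acceptance only at control CV below 25% and at least one doubling.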

[2] = compound: CCc1c2c(nc3ccc(OC(=O)N4CCC(N5CCCCC5)CC4)cc13)-c1cc3c(c(=O)n1C2)COC(=O)[C@]3(O)CC [Irinotecan]
Summary of the method: as §1

[3] = compound: Cn1cc(-c2cnc3ccc4ccc(CS(=O)(=O)NCc5ccccn5)cc4c(=O)c3c2)cn1 [MK-8033]
Summary of the method: as §1

[4] = compound: CCc1c2c(nc3ccc(OC(=O)N4CCC(N5CCCCC5)CC4)cc13)-c1cc3c(c(=O)n1C2)COC(=O)[C@]3(O)CC [Irinotecan] + Cc1nc(Nc2ncc(C(=O)Nc3c(C)cccc3Cl)s2)cc(N2CCN(CCO)CC2)n1 [Dasatinib] (partner 0.075 µM)
Summary of the method: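 A single step with final 0.05% Triton X-100, 1% formaldehyde and 1 ug/ml Hoechst fixed the cells and stained nuclei 5 days after treatment. Lung cancer cell lines in 1536-well plates had been treated by pin tool the day after seeding with one drug alone or a fixed anchor-drug dose plus five library-drug doses (not always all listed) in √10 steps, and nuclei were counted on 4× images. Relative viability is the ratio of nuclei in treated wells to nuclei in vehicle wells, taken as the median of duplicate plates.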

Row | Cell Line | relative viability ([1]; 0.1 µM) | relative viability ([1]; 0.3162 µM) | relative viability ([1]; 1 µM) | relative viability ([1]; 3.162 µM) | relative viability ([1]; 10 µM) | relative viability ([2]; 2 µM) | relative viability ([2]; 6.325 µM) | relative viability ([2]; 20 µM) | relative viability ([3]; 0.02 µM) | relative viability ([3]; 0.06325 µM) | relative viability ([3]; 0.2 µM) | relative viability ([3]; 0.6325 µM) | relative viability ([3]; 2 µM) | relative viability ([4]; first compound 2 µM) | relative viability ([4]; first compound 6.325 µM) | relative viability ([4]; first compound 20 µM) | relative viability ([2]; 0.6325 µM) | relative viability ([4]; first compound 0.6325 µM)
1 | 201T | 1.03 | 0.973 | 1.08 | 1.05 | 0.981 | 0.996 | 0.467 | 0.33 | 0.967 | 0.974 | 0.9 | 0.976 | 0.963 | 0.552 | 0.529 | 0.36 | – | –
2 | A549 | 1 | 1.12 | 1.13 | 0.939 | 0.9 | 0.78 | 0.2 | 0.0915 | 0.996 | 0.932 | 0.93 | 0.913 | 0.943 | – | – | – | 0.943 | –
3 | A-427 | 1.09 | 1.02 | 1.12 | 0.94 | 1.03 | 0.844 | 0.299 | 0.21 | 1.05 | 0.963 | 0.877 | 1.06 | 0.96 | 0.535 | 0.211 | 0.16 | – | –
4 | ABC-1 | 1.06 | 0.985 | 1.33 | 0.984 | 0.85 | 0.956 | 0.496 | 0.21 | 0.972 | 0.861 | 0.886 | 0.965 | 1.04 | 0.675 | 0.444 | 0.203 | – | –
5 | BEN | 1.05 | 0.987 | 1.25 | 0.991 | 1.05 | 0.73 | 0.345 | 0.338 | 1.04 | 0.913 | 0.963 | 0.934 | 0.939 | 0.331 | 0.199 | 0.252 | 0.735 | 0.238
6 | CAL-12T | 1.04 | 1.04 | 1.14 | 0.907 | 1 | 1.04 | 0.485 | 0.293 | 1.01 | 0.936 | 0.962 | 1.07 | 0.951 | 0.513 | 0.29 | 0.095 | 0.81 | –
7 | COR-L23 | 0.943 | 1.14 | 1.16 | 1.16 | 0.921 | 0.419 | 0.215 | 0.144 | 1.01 | 1.02 | 0.947 | 1.06 | 0.981 | 0.272 | 0.239 | 0.0978 | 0.412 | 0.271
8 | COR-L 105 | 1.01 | 0.853 | 0.963 | 1.07 | 0.899 | 0.903 | 0.603 | 0.339 | 1.04 | 0.809 | 0.854 | 0.94 | 0.826 | 0.42 | 0.333 | 0.182 | 0.803 | 0.376
9 | Calu-6 | 0.948 | 1.21 | 1.07 | 1.08 | 0.966 | 0.59 | 0.247 | 0.133 | 1.02 | 0.906 | 0.923 | 1.06 | 1 | – | – | – | 0.724 | –
10 | ChaGo-K-1 | 1.02 | 1.02 | 1.1 | 0.988 | 0.946 | 0.7 | 0.295 | 0.261 | 1.03 | 0.907 | 0.941 | 1.01 | 0.873 | 0.474 | 0.236 | 0.178 | 0.759 | 0.351
